Experimental findings from patent US11938203B2, “Oil-dispersed composition and cosmetics for lip care using the same” (AMOREPACIFIC CORPORATION, priority 2021, dated 2024) are described below.

This data set can be described thus: Compatibility between water-soluble effective raw materials and oils. Format: physicochemical. From the text: Compatibility Between Water-Soluble Effective Raw Materials and Oils
Setting [1] is: ester oil and silicone-based oil that do not contain a glyceryl group or an isostearyl group.
The mark [2] stands for this setting: oil: Polyglyceryl-2 Triisostearate.

Regarding `COc1cc(/C=C/C(=O)Oc2cc(C)ccc2C(C)C)cc(OC)c1OC` [Thymol trimethoxy cinnamate], the “Compatibility with oil (in words)” value is, setting by setting: (diisostearyl malate oil (diester-based oil), FIG. 1) “very good compatibility”; under setting [1], “excellent compatibility”; (hydrocarbon oil-based oil or alcohol-based oil) “poor compatibility”; (pentaerythrityl tetraisostearate oil, FIG. 2) “very poor compatibility”. Also, the Compatibility with oil result by setting is: (oil: Diisostearyl Malate) “◯”; (oil: Diphenylsiloxy Phenyl Trimethicone) “◯”; (oil: Isononyl isononanoate) “◯”; (oil: Octyldodecyl neopentanoate) “◯”; under setting [2], “◯”.

Ceramides: the “Compatibility with oil (in words)” value under setting [1] is on record as “poor compatibility”. Further, the Compatibility with oil result is recorded as “◯” (oil: Diisostearyl Malate) and “◯” under setting [2].
